Data from patent US20140106015A1, “COMPOSITION CONTAINING HEAT-TREATED POWDER OR EXTRACT OF GLYCINE SOJA AS ACTIVE GRADIENT FOR PREVENTION AND TREATMENT OF DIABETES MELLITUS AND DIABETIC COMPLICATIONS” (KOC BIOTEC CO LTD, priority 2011, published 2014).

Columns and labels:
Assay type in all cases: in vivo, mouse
[1] = system: BKS.Cg-m+/+ Leprdb/J homozygous diabetic (db/db) mice; test: Experimental Example 5: efficacy comparison with anthocyanins, pinitol, banaba/Cr complex in db/db mice
Procedure: “Pinitol”: Product containing 95% or more of pinitol (Sigma-Aldrich) “Banaba/Cr complex”: Wellness Banaba Gold ChromeTM (containing 400 mg/g banaba leaf extract, 200 mg/g indigestible maltodextrin and 0.1 mg/g chromium) Male db/db mice, aged 3 weeks, were acclimatized to an animal breeding room for 1 week. 4 mice were assigned to each experimental group. […] All animals were fasted for 6 h from 9 a.m. to 3 p.m. every Wednesday. Blood samples were collected from the mouse tail vein and blood glucose levels were measured using a portable blood glucose meter (OneTOUCH@Ultra, Johnson & Johnson, USA). […] The following are a total of 8 experimental groups used. Classification of Experimental Groups • NC: […] After the drug (test material) was administered to each experimental group for 6 weeks, abdominal, epididymal, and inguinal adipose tissues were excised from each experimental animal. The total weight of the adipose tissues was measured. […] For the autopsy, each animal was fasted for 12 h. […] After plasma was separated, the levels of total cholesterol, high-density lipoprotein (HDL) cholesterol, low-density lipoprotein (LDL) cholesterol, triglyceride, BUN, and phospholipid in the plasma were measured using an automatic biochemical analyzer (Hitachi-720, Hitachi Medical, Japan). […] The levels of glucose and insulin in the serum were analyzed. Plasma was obtained as a sample in the same manner. The plasma insulin level was measured using a Mouse Insulin ELISA kit (Shibayagi, Japan) and an ELISA reader (Labsystems, Finland). Data obtained from the above experiments were expressed as mean±standard error and significance assay was determined using Student's T-test.

db/db mice [2] = test: Experimental Example 2: glycine soja streamed powder versus metformin in db/db mice, 6 weeks oral; conditions: age of 10 weeks
Procedure: The glycine soja streamed powder (DC) was diluted with physiological saline and the dilution was orally administered in divided portions (each 0.2 ml) at 10 a.m. and 4 p.m. daily using a mouse sonde (2 g/kg/day). Metformin (1,1-dimethylbiguanide), which is a widely used hypoglycemic agent, was chosen as positive control. Metformin was dissolved in 0.25% carboxymethylcellulose (CMC) and administered orally in two divided portions (each 0.2 ml) in the same manner (150 mg/kg/day). The same amount of physiological saline as negative control was administered in the same manner. A general bean streamed powder was used as another comparative test group. The bean streamed powder was obtained in the same manner as in Example 1, except that bean was used instead of glycine soja. The bean streamed powder was administered orally twice a day in the same amount and manner as the glycine soja streamed powder (DC).
Male db/db mice, aged 3 weeks, were acclimatized to an animal breeding room for 1 week. 6 mice were assigned to each experimental group. The blood glucose levels of the animals were measured from the age of 4 weeks at intervals of 1 week for a total of 6 weeks. Drug was administered orally in divided portions (each 0.2 ml) at 10 a.m. and 4 p.m. daily using a mouse sonde. All animals were fasted for 6 h from 9 a.m. to 3 p.m. every Wednesday. Blood samples were collected from the mouse tail vein and blood glucose levels were measured using a portable blood glucose meter (OneTOUCH@Ultra. Johnson & Johnson, USA). Since serum for final biochemical analysis requires blood sampling after fasting for at least 12 h, blood glucose levels were measured at the final 8th week. 2 days after the measurement, an autopsy was conducted. For the autopsy, all animals were fasted for 12 h. Blood samples were drawn from the heart under ether anesthesia, put in tubes for serum separation, and centrifuged at 3000 rpm for 20 min to obtain serum samples, which were used as samples for the analysis of biochemical indices.
Experimental Group Classification • Control (db/db mice) (n=6) • Positive control (Metformin, 150 mg/kg/day, o.p) (n=6) • Glycine soja streamed powder (DC) (2.0 g/kg/day, o.p) (n=6) • Bean powder (2.0 g/kg/day, o.p) (n=6)
After a test material was administered to each experimental group for 6 weeks, blood glucose level was measured at the final 8th week. 2 days after the measurement, an autopsy was conducted. For the autopsy, each animal was fasted for 12 h. Blood was drawn from the heart under ether anesthesia, put in a tube for serum separation, and centrifuged at 3000 rpm for 20 min to obtain serum, which was used as a sample for the analysis of biochemical indices. The glucose and insulin levels of the serum were analyzed. Changes in the insulin level and insulin resistance index (HOMAIR) of each experimental group during administration for 8 weeks period were calculated by the following formulae. Plasma was obtained as a sample in the same manner. The level of insulin in the plasma was measured using a Mouse Insulin ELISA kit (Shibayagi, Japan) and an ELISA reader (Labsystems, Finland).
After a test material was administered to each experimental group for 6 weeks, abdominal, epididymal, and inguinal adipose tissues were excised from each experimental animal. The total weight of the adipose tissues was measured.
Blood was obtained in the same manner as in 1-3, put in a tube for serum separation, and centrifuged at 3000 rpm for 20 min to obtain serum, which was used as a sample for the analysis of biochemical indices. Total cholesterol, high-density lipoprotein (HDL) cholesterol, low-density lipoprotein (LDL) cholesterol, triglyceride, and phospholipid levels, which are indices of lipid contents in plasma and liver, in the plasma were measured using an automatic biochemical analyzer (Hitachi-720, Hitachi Medical, Japan). […]

db/db mice [3] = test: as above; conditions: age of 10 weeks, fasted about 16 h, DC and bean powder 2 g/kg/day, metformin 150 mg/kg/day
[4] = db/db mice, 100 mg/kg/day, BANABA 300 mg/kg/day
[5] = DC and bean powder 2 g/kg/day, metformin 150 mg/kg/day
[6] = metformin 150 mg/kg/day, bean powder 2 g/kg/day

CO[C@H]1[C@H](O)[C@@H](O)[C@@H](O)[C@H](O)[C@@H]1O [Pinitol, pinitol]
serum BUN level higher than non-treated group ([1]; No. 4 mouse of the Pinitol-administered group): ≥ 3 times | serum BUN level ([1]; No. 4 mouse of the Pinitol-administered group, 100 mg/kg/day, NC 30.2 mg/dL): 92.8 mg/dL | blood glucose level ([1]; db/db mice, 9th week, tail vein, fasted 6 h, oral 6 weeks, 100 mg/kg/day, BANABA 300 mg/kg/day): 231.8 mg/dL | blood glucose level lower than NC (hypoglycemic efficacy) ([1]; db/db mice, 9th week, 100 mg/kg/day, BANABA 300 mg/kg/day): 52.1% | daily food intake compared with non-treated group ([1]; db/db mice, after completion of the tests): smaller | serum low-density lipoprotein cholesterol level compared with non-treated group ([1]; db/db mice, age of 9 weeks): not substantially different | serum insulin level ([1]; db/db mice, age of 9 weeks, 100 mg/kg/day, BANABA 300 mg/kg/day): 6.6 ng/mL | serum insulin level lower than NC (suppressive efficacy on insulin resistance) ([1]; db/db mice, age of 9 weeks, NC 10.2 ng/ml): 35.3% | serum triglyceride (TG) level relative to non-treated group (NC) ([1]; db/db mice, age of 9 weeks, NC 22 mg/dL): approximately twice | serum total cholesterol level compared with non-treated group ([1]; db/db mice, age of 9 weeks, NC 168.3 mg/dL): not substantially different | adipose tissue weight lower than non-treated group (NC) ([1]; db/db mice, age of 10 weeks): about 5.4% | liver tissue weight compared with NC ([1]; db/db mice, age of 10 weeks): not substantially different | liver tissue weight lower than non-treated group (NC) ([1]; db/db mice, age of 10 weeks, p<0.05): about 7.0% | food efficiency ratio compared with non-treated group ([1]; db/db mice, for 5 weeks): similar | Food efficiency ratio (PER, %) ([1]; db/db mice, for 5 weeks, calculated from food intakes and body weight gains): 11.9 ± 1.28% | Body weight gain [1, 4]: 0.500 ± 0.05 g/day | Food intake [1, 4]: 4.20 g/day

CN(C)C(=N)NC(=N)N [metformin, 1,1-dimethylbiguanide]
serum high-density lipoprotein cholesterol level compared with non-administered group (db/db mice [2]): no significant differences | serum triglyceride level lower than non-administered group (NC) (db/db mice [2]; DC 2 g/kg/day, metformin 150 mg/kg/day): 38.8% | serum ALT level (db/db mice [2]; [5]): 54.9 U/L | serum AST level (db/db mice [2]; [5]): 120.0 U/L | serum glucose level lower than non-administered group (db/db mice [2]; [5]): 34.6% | serum triglyceride (TG) level (db/db mice [2]; [5]): 78.8 mg/dL | serum total cholesterol level compared with non-administered group (db/db mice [2]; metformin 150 mg/kg/day): low compared to that of the non-administered group, but there was no statistical significance | serum insulin level compared with non-administered group (db/db mice [2]; [6]): slightly lower than the serum insulin level of the non-administered group, but there were no statistical significances | serum low-density lipoprotein cholesterol level compared with non-administered group (db/db mice [2]; [6]): low compared to the low-density lipoprotein cholesterol level of the non-administered group, but there were no statistical significances | blood glucose level lower than non-administered group (NC) (db/db mice [2]; oral 6 weeks, DC and bean powder 2 g/kg/day, metformin 150 mg/kg/day): 34.6% | serum glucose level (db/db mice [3]): 376.0 mg/dL
